Results reported in patent US5387709A, “Substituted sulfonamides, process of preparation and medicines containing same” (Lipha Lyonnaise Industrielle Pharmaceutique, priority 1990, dated 1995).
Where two headings read alike, the source gives them in different places.

Assays:
rat aorta = assay: Inhibition of the U46619 induced rat aorta vasoconstriction; type: cell-based; conditions: contraction by U46619 (142 nM), rat thoracic aorta, 37° C., read-out: VASOCONSTRICTION RAT AORTA IC 50
Method: (B) Inhibition of the U46619 induced rat aorta vasoconstriction:
male rats weighing about 300 g are put to death by euthanasia; the thoracic aorta is rapidly taken out. A sample of about 1 cm is cut into a spiral, and placed in a vat containing 20 ml of nutrient medium (Krebs-Henseleit) kept a 37° C. and oxygenated (O2 95%, CO2 5%). The contractions are recorded with an isotonic strain gauge. After a rest of 45 mn, supramaximum contractions are provoked by the addition of an analogue of TXA2 (U46619: 142 nM) to the survival medium. A plateau is generally reached after 10 mn of contact, the latter not exceeding 25 mn. A rest of 30 mn and a plurality of rinses take place after each contraction. The products are added 10 mn after U46619 and allowed to rest 15 mn, after which delay the inhibition is measured. The inhibitory concentration 50 (IC) is determined for each compound studied and on a minimum of 3 aortas. The activities of the compounds of the present invention are described in example 108.
(§1) The products of examples 1 to 107 have been tested for platelet aggregation on guinea-pig and on the contraction of the aorta in rat as described previously.

platelets of guinea-pig = assay: Inhibition of the platelet aggregation induced by U46619 (BORN test), guinea-pig platelets; type: cell-based; conditions: read-out: PLATELET AGGREGATION GUINEA-PIG IC 50
Source text: (A) Inhibition of the platelet aggregation induced by U46619, a stable analogue of TXA2 (9,11-dideoxy-11α,9α-epoxymethanoprostaglandine F2 α):
The tests determine a concentration of compound which inhibits at 50% (CI50) a liminar aggregation induced by U46619. The activities of the compounds of the present invention are given in example 108.
as §1

IC50 (rat aorta; Rattus norvegicus) [µM] | IC50 (platelets of guinea-pig; Cavia porcellus, Platelet) [µM] | IC50 (platelets of guinea-pig) [µM] | IC50 (rat aorta) [µM] | Compound
1 | 0.31 |  |  | O=C(O)Cc1ccc(CC2(CNS(=O)(=O)c3ccc(Cl)cc3)CCOCC2)cc1 [Example 88, 4-[[4-[[[(4-Chlorophenyl)sulfonyl]amino]methyl]tetrahydropyran-4-yl]methyl]benzeneacetic acid]
0.07 | 1.8 |  |  | O=C(O)Cc1ccc(C2(CNS(=O)(=O)c3ccc(Cl)cc3)CC2)cc1 [Example 12, 4-[1-[[[(4-Chlorophenyl)sulfonyl]amino]methyl]cyclopropyl]benzeneacetic acid]
0.07 |  | 0.72 |  | O=C(O)Cc1ccc(C[C@@H]2CCC[C@H]2NS(=O)(=O)c2ccc(Cl)cc2)cc1 (relative stereo) [Example 2, Sodium trans-4-[[2-[[(4-chlorophenyl)sulfonyl]amino]-cyclopentyl]methyl]benzene-acetate]
0.28 | 1.5 |  |  | O=C(O)Cc1ccc(CC2(CNS(=O)(=O)c3cccs3)CCCC2)cc1 [Example 67, 4-[[1-[[[(Thien-2-yl)sulfonyl]amino]methyl]cyclopentyl]methyl]benzeneaceticacid]
0.28 | 0.57 |  |  | O=C(O)Cc1ccc(CC2(CNS(=O)(=O)c3ccc([N+](=O)[O-])cc3)CCCC2)cc1 [Example 95]
> 1 | > 5 |  |  | CC(=O)c1ccc(S(=O)(=O)NCC2(Cc3ccc(CCO)cc3)CCCC2)cc1 [Example 43, 4-Acetyl-N-[[1-[[4-(2-hydroxyethyl)phenyl]methyl]cyclopentyl]methyl]-benzenesulfonamide]
1 | 0.51 |  |  | Nc1ccc(S(=O)(=O)NCC2(Cc3ccc(CC(=O)O)cc3)CCCC2)cc1 [Example 86, 4-[[1-[[[(4-Aminophenyl)sulfonyl]amino]methyl]cyclopentyl]methyl]benzeneacetic acid]
> 1 | > 5 |  |  | CC1(C)C(C)(C)C1(CNS(=O)(=O)c1ccc(Cl)cc1)Cc1ccc(CC(=O)O)cc1 [Example 90, 4-[[1-[[[(4-Chlorophenyl)sulfonyl]amino]methyl]-2,2,3,3-tetramethylcyclopropyl]methyl]benzeneacetic acid]
> 1 | 0.66 |  |  | COC(=O)Cc1ccc(CC2(CNS(=O)(=O)c3ccc(Cl)cc3)CCCC2)cc1 [Example 18, Methyl 4-[[1-[[[(4-chlorophenyl)sulfonyl]amino]methyl]cyclopentyl]methyl]benzeneacetate]
0.17 | 0.1 |  |  | CCN(CC)CCOC(=O)Cc1ccc(CC2(CNS(=O)(=O)c3ccc(Cl)cc3)CCCC2)cc1 [Example 79, 2-(Diethylamino)ethyl 4-[[1-[[[(4-Chlorophenyl)sulfonyl]amino]methyl]cyclopentyl]methyl]benzeneacetate]
0.3 | 3.3 |  |  | Cc1ccc(S(=O)(=O)N[C@@H]2CCC[C@H]2Cc2ccc(CC(=O)O)cc2)cc1 (relative stereo) [Example 7, Trans-4-[[2-[[(4-methylphenyl)sulfonyl]amino]cyclopentyl]methyl]-benzeneacetic acid]
> 1 | > 5 |  |  | O=C(O)Cc1ccc(CC2(CNS(=O)(=O)c3ccc(-c4ccccc4)cc3)CCCC2)cc1 [Example 101, 4-[[1-[[([1,1'-Biphenyl-4-yl]sulfonyl)amino]methyl]cyclopentyl]methyl]benzeneacetic acid]
0.04 | 1.1 |  |  | O=C(O)Cc1ccc(CC2(CNS(=O)(=O)c3ccc(I)cc3)CCCC2)cc1 [Example 54, 4-[[1-[[[(4-Iodophenyl)sulfonyl]amino]methyl]cyclopentyl]methyl]benzeneacetic acid]
0.18 | 1 |  |  | CSc1ccc(S(=O)(=O)NCC2(Cc3ccc(CC(=O)O)cc3)CCCC2)cc1 [Example 103, 4-[[1-[[[(4-methylthiophenyl]sulfonyl]amino]methyl]cyclopentyl]methyl]benzeneacetic acid]
> 1 | > 20 |  |  | CC(=O)c1ccc(CC2(CNS(=O)(=O)c3ccc(Cl)cc3)CCCC2)cc1 [Example 17, N-[[1-[(4-Acetylphenyl)methyl]cyclopentyl]methyl]-4-chlorobenzenesulfonamide]
0.06 | 1.6 |  |  | O=S(=O)(NCC1(Cc2ccc(Cc3nnn[nH]3)cc2)CCCC1)c1ccc(Cl)cc1 [Example 81, 4-Chloro-N-[1-[[[4-[(1H-tetrazol-5-yl)methyl]phenyl]methyl]cyclopentyl]methyl]benzenesulfonamide]

IC50 (rat aorta; Rattus norvegicus) [µM] | IC50 (platelets of guinea-pig; Cavia porcellus, Platelet) [µM] | IC50 (platelets of guinea-pig) [µM] | IC50 (rat aorta) [µM] | Compound
1 | 0.94 |  |  | O=P(O)(O)Cc1ccc(CC2(CNS(=O)(=O)c3ccc(Cl)cc3)CCCC2)cc1 [Example 83, [[4-[[1-[[[(4-Chlorophenyl)sulfonyl]amino]methyl]cyclopentyl]methyl]phenyl]methyl]phosphonic acid]
0.19 | 2.9 |  |  | O=S(=O)(O)Cc1ccc(CC2(CNS(=O)(=O)c3ccc(Cl)cc3)CCCC2)cc1 [Example 80, 4-[[1-[[[(4-Chlorophenyl)sulfonyl]amino]methyl]cyclopentyl]methyl]benzenemethanesulfonic acid]
> 1 | 1.3 |  |  | CC(=O)Nc1ccc(S(=O)(=O)NCC2(Cc3ccc(CC(=O)O)cc3)CCCC2)cc1 [Example 85, 4-[[1-[[[(4-acetamidophenyl)sulfonyl]amino]methyl]cyclopentyl]methyl]benzeneacetic acid]
> 1 | 2.9 |  |  | O=C(O)CCNC(=O)Cc1ccc(CC2(CNS(=O)(=O)c3ccc(Cl)cc3)CCCC2)cc1 [Example 76, 3-[[2-[4-[[1-[[[(4-Chlorophenyl)sulfonyl]amino]methyl]cyclopentyl]methyl]phenyl]-1-oxoethyl]amino]propanoic acid]
 |  | 0.48 | 0.04 | Complex of sodium 4-[[1-[[[(4-chlorophenyl)sulfonyl]amino]methyl]cyclopentyl]methyl]benzeneacetate and β-cyclodextrine (1:1) [Example 23]
0.4 | 1.8 |  |  | O=C(O)Cc1ccc(CC2(CNS(=O)(=O)c3ccccc3Cl)CCCC2)cc1 [Example 32, 4-[[1-[[[(2-Chlorophenyl)sulfonyl]amino]methyl]cyclopentyl]methyl]benzeneacetic acid]
0.2 | 23 |  |  | O=C(O)Cc1ccc(C[C@@H]2CCC[C@H]2NS(=O)(=O)c2ccc(F)cc2)cc1 (relative stereo) [Example 4, Trans-4-[[2-[[(4-fluorophenyl)sulfonyl]amino]cyclopentyl]methyl]benzeneacetic acid]
0.05 | 0.39 |  |  | O=C(O)Cc1ccc(C[C@@H]2CCCC[C@H]2NS(=O)(=O)c2ccc(Cl)cc2)cc1 (relative stereo) [Example 11, Trans-4-[[2-[[(4-chlorophenyl)sulfonyl]amino]cyclohexyl]methyl]benzeneacetic acid]
0.05 | 1.6 |  |  | O=C(O)Cc1cccc(CC2(CNS(=O)(=O)c3ccc(Cl)cc3)CCCC2)c1 [Example 93, 3-[[1-[[[(4-Chlorophenyl)sulfonyl]amino]methyl]cyclopentyl]methyl]benzeneacetic acid]
≥ 1 | 2.5 |  |  | O=C1CCC(c2ccc(CC3(CNS(=O)(=O)c4ccc(Cl)cc4)CCCC3)cc2)=NN1 [Example 31, 4-Chloro-N-[[1-[[4-(4,5-dihydro-3-oxo-2H-pyridazin-6-yl)phenyl]methyl]cyclopentyl]methyl]-benzenesulfonamide]
0.08 | 1.4 |  |  | O=C(O)Cc1ccc(CC2(CNS(=O)(=O)c3ccc(Cl)cc3Cl)CCCC2)cc1 [Example 59, 4-[[1-[[[(2,4-Dichlorophenyl)sulfonyl]amino]methyl]cyclopentyl]methyl]benzeneacetic acid]
1 | 0.92 |  |  | O=C(O)CCC(=O)c1ccc(CC2(CNS(=O)(=O)c3ccc(Cl)cc3)CCCC2)cc1 [Example 30, 4-[4-[[1-[[[(4-Chlorophenyl)sulfonyl]amino]methyl]cyclopentyl]methyl]phenyl]-4-oxobutanoic acid]
> 1 | > 5 |  |  | Cc1cnc2c(S(=O)(=O)NCC3(Cc4ccc(CC(=O)O)cc4)CCCC3)cccc2c1 [Example 66, 4-[[1-[[[(3-Methylquinol-8-yl)sulfonyl]amino]methyl]cyclopentyl]methyl]benzeneacetic acid]
> 1 | 0.75 |  |  | O=C(O)Cc1ccc(CC2(CNS(=O)(=O)c3cccc4ccccc34)CCCC2)cc1 [Example 96, 4-[[1-[[[(Naphthalen-1-yl)sulfonyl]amino]methyl]cyclopentyl]methyl]benzeneacetic acid]
1 | > 20 |  |  | O=C(O)Cc1ccc(OC2CCCC2NS(=O)(=O)c2ccc(Cl)cc2)cc1 (centres unmarked) [Example 9, 4-[2-[[(4-chlorophenyl)sulfonyl]amino]cyclopentyloxy]benzeneacetic acid]
